The text below walks through data of patent US20120328569A1, “INHIBITORS OF HEPATITIS C VIRUS NS5B POLYMERASE” (priority 2010, published 2012).

The experiment concerns HCV genotype 1b replicon. Briefly: HCV replicon assay, cell ELISA with antibody to replicon-encoded NS3/4A (genotype 1b replicon). The format is cell-based, hepatitis C virus. The conditions noted are these: Hepatitis C virus, 96 h, read-out: Replicon 1b IC50 (nM), HCV genotype 1b replicon cells, 96 hours incubation, NS3/4A ELISA readout. Put shortly: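 Replicon-harbouring cells carrying neomycin phosphotransferase were incubated 96 h with a compound dilution series without G418. Replication was quantified indirectly by a cell ELISA detecting replicon-encoded NS3/4A. IC50 values were calculated relative to DMSO control with a four-parameter fit.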
In general terms: In antiviral work, replicon cells carry a viral genome segment that copies itself.

Consider `CNC(=O)c1c(-c2ccc(F)cc2)oc2cc(N(C)S(C)(=O)=O)c(-c3cc(F)cc(-c4nc5cnccc5o4)c3)cc12` [Example 212], for which the IC50 amounted to 2.6 nM.

In the case of `CNC(=O)c1c(-c2ccc(F)cc2)oc2cc(N(C)S(C)(=O)=O)c(-c3ccc(F)c(-c4nc5cnccc5o4)c3)cc12` [Example 213], the IC50 worked out at 2.5 nM.

Consider `CNC(=O)c1c(-c2ccc(F)cc2)oc2cc(N(C)S(C)(=O)=O)c(-c3cc(-c4nc5cnccc5o4)ccc3F)cc12` [Example 214], for which the IC50 is 6.3 nM.

For the compound `CNC(=O)c1c(-c2ccc(F)cc2)oc2cc(N(C)S(C)(=O)=O)c(-c3ccc(Cl)c(-c4nc5cnccc5o4)c3)cc12` [Example 215], the IC50 worked out at 2.1 nM.

As for `CNC(=O)c1c(-c2ccc(F)cc2)oc2cc(N(C)S(C)(=O)=O)c(-c3cccc(-c4nc5ccncc5o4)c3)cc12` [Example 216], the IC50 amounted to 8.2 nM.

As to `CNC(=O)c1c(-c2ccc(F)cc2)oc2cc(N(C)S(C)(=O)=O)c(-c3cccc(-c4nc5cccnc5o4)c3)cc12` [Example 217], the IC50 is 2.1 nM.

On to `CNC(=O)c1c(-c2ccc(F)cc2)oc2cc(N(C)S(C)(=O)=O)c(-c3cc(F)cc(-c4nc5cccnc5o4)c3)cc12` [Example 218], for which the IC50 is 1.8 nM.

On to `CNC(=O)c1c(-c2ccc(F)cc2)oc2cc(N(C)S(C)(=O)=O)c(-c3cc(F)cc(-c4nc5cc(Cl)cnc5o4)c3)cc12` [Example 219], for which the IC50 was 3 nM.

`CNC(=O)c1c(-c2ccc(F)cc2)oc2cc(N(C)S(C)(=O)=O)c(-c3cc(F)cc(-c4nc5cc(F)cnc5o4)c3)cc12` [Example 220]: the IC50 was determined as 1.5 nM.

As to `CNC(=O)c1c(-c2ccc(F)cc2)oc2cc(N(C)S(C)(=O)=O)c(-c3ccc(F)c(-c4nc5cccnc5o4)c3)cc12` [Example 221], the IC50 amounted to 1.7 nM.

Regarding `CNC(=O)c1c(-c2ccc(F)cc2)oc2cc(N(C)S(C)(=O)=O)c(-c3cc(-c4nc5cccnc5o4)ccc3F)cc12` [Example 222], the IC50 is 3.5 nM.

`CNC(=O)c1c(-c2ccc(F)cc2)oc2cc(N(C)S(C)(=O)=O)c(-c3cccc(-c4nc5cc(Cl)cnc5o4)c3)cc12` [Example 223]: the IC50 is 10 nM.

As for `CNC(=O)c1c(-c2ccc(F)cc2)oc2cc(N(C)S(C)(=O)=O)c(-c3cccc(-c4nc5cc(F)cnc5o4)c3)cc12` [Example 224], the IC50 was found to be 2.3 nM.

`CNC(=O)c1c(-c2ccc(F)cc2)oc2cc(N(C)S(C)(=O)=O)c(-c3ccc(OC)c(-c4nc5cccnc5o4)c3)cc12` [Example 225]: the IC50 amounted to 3.6 nM.

As to `CNC(=O)c1c(-c2ccc(F)cc2)oc2cc(N(C)S(C)(=O)=O)c(-c3ccc(OC)c(-c4nc5cc(Cl)cnc5o4)c3)cc12` [Example 226], the IC50 came to 4 nM.

Take `CNC(=O)c1c(-c2ccc(F)cc2)oc2cc(N(C)S(C)(=O)=O)c(-c3ccc(OC)c(-c4nc5cc(F)cnc5o4)c3)cc12` [Example 227]: the IC50 was found to be 2.2 nM.

For the compound `CNC(=O)c1c(-c2ccc(F)cc2)oc2cc(N(C)S(C)(=O)=O)c(-c3ccc(Cl)c(-c4nc5cccnc5o4)c3)cc12` [Example 228], the IC50 turned out to be 3.2 nM.

As to `CNC(=O)c1c(-c2ccc(F)cc2)oc2cc(N(C)S(C)(=O)=O)c(-c3cc(Cl)cc(-c4nc5cccnc5o4)c3)cc12` [Example 229], the IC50 worked out at 3.7 nM.

As to `CNC(=O)c1c(-c2ccc(F)cc2)oc2cc(N(C)S(C)(=O)=O)c(-c3cc(-c4nc5cccnc5o4)ccc3Cl)cc12` [Example 230], the IC50 was found to be 8.3 nM.

Turning to `CNC(=O)c1c(-c2ccc(F)cc2)oc2cc(N(C)S(C)(=O)=O)c(-c3ccc(OC(F)(F)F)c(-c4nc5cccnc5o4)c3)cc12` [Example 231], the IC50 amounted to 6.6 nM.

Regarding `CNC(=O)c1c(-c2ccc(F)cc2)oc2cc(N(C)S(C)(=O)=O)c(-c3cc(F)c(OC)c(-c4nc5ncccc5o4)c3)cc12` [Example 232], the IC50 stood at 2.4 nM.

On to `CNC(=O)c1c(-c2ccc(F)cc2)oc2cc(N(C)S(C)(=O)=O)c(-c3cc(F)c(OC)c(-c4nc5cccnc5o4)c3)cc12` [Example 233], for which the IC50 turned out to be 2.9 nM.

On to `CNC(=O)c1c(-c2ccc(F)cc2)oc2cc(N(C)S(C)(=O)=O)c(-c3cc(OC)c(OC)c(-c4nc5ncccc5o4)c3)cc12` [Example 234], for which the IC50 stood at 2.7 nM.

Turning to `CNC(=O)c1c(-c2ccc(F)cc2)oc2cc(N(C)S(C)(=O)=O)c(-c3cc(OC)c(OC)c(-c4nc5cccnc5o4)c3)cc12` [Example 235], the IC50 worked out at 4 nM.

As to `CNC(=O)c1c(-c2ccc(F)cc2)oc2cc(N(C)S(C)(=O)=O)c(-c3ccc(OCCO)c(-c4nc5ncccc5o4)c3)cc12` [Example 237], the IC50 was determined as 2.6 nM.

`CNC(=O)c1c(-c2ccc(F)cc2)oc2cc(N(C)S(C)(=O)=O)c(-c3ccc(OC)c(-c4nc5ncccc5o4)c3)cc12` [Example 238]: the IC50 was found to be 2.9 nM.

For `CNC(=O)c1c(-c2ccc(F)cc2)oc2cc(N(C)S(C)(=O)=O)c(-c3ccc(OC)c(-c4nc5ncc(Cl)cc5o4)c3)cc12` [Example 239], the IC50 worked out at 2.6 nM.

Take `CNC(=O)c1c(-c2ccc(F)cc2)oc2cc(N(C)S(C)(=O)=O)c(-c3cccc(-c4nc5nccnc5o4)c3)cc12` [Example 240]: the IC50 was 1.9 nM.

In the case of `CNC(=O)c1c(-c2ccc(F)cc2)oc2cc(N(C)S(C)(=O)=O)c(-c3cccc(-c4nc5ncncc5o4)c3)cc12` [Example 241], the IC50 came to 9.5 nM.

For the compound `CNC(=O)c1c(-c2ccc(F)cc2)oc2cc(N(C)S(C)(=O)=O)c(-c3cccc(-c4nc5cncnc5o4)c3)cc12` [Example 242], the IC50 is 4.8 nM.

Consider `CNC(=O)c1c(-c2ccc(F)cc2)oc2cc(N(C)S(C)(=O)=O)c(-c3cc(F)c(F)c(-c4nc5ncccc5o4)c3)cc12` [Example 243], for which the IC50 worked out at 1.3 nM.

With `CNC(=O)c1c(-c2ccc(F)cc2)oc2cc(N(C)S(C)(=O)=O)c(-c3cc(F)c(F)c(-c4nc5cccnc5o4)c3)cc12` [Example 244], the IC50 is 1.3 nM.

Turning to `CNC(=O)c1c(-c2ccc(F)cc2)oc2cc(N(C)S(C)(=O)=O)c(-c3cc(F)cc(-c4nc5cccnc5s4)c3)cc12` [Example 245], the IC50 was found to be 2 nM.

As for `CNC(=O)c1c(-c2ccc(F)cc2)oc2cc(N(C)S(C)(=O)=O)c(-c3ccc(F)c(-c4nc5cccnc5s4)c3)cc12` [Example 246], the IC50 is 3.6 nM.

In the case of `CNC(=O)c1c(-c2ccc(F)cc2)oc2cc(N(C)S(C)(=O)=O)c(-c3cc(OC)cc(-c4nc5cccnc5s4)c3)cc12` [Example 249], the IC50 stood at 2.2 nM.

In the case of `CNC(=O)c1c(-c2ccc(F)cc2)oc2cc(N(C)S(C)(=O)=O)c(-c3cc(-c4nc5cccnc5s4)ccc3OC)cc12` [Example 250], the IC50 was found to be 5.1 nM.

`CNC(=O)c1c(-c2ccc(F)cc2)oc2cc(N(C)S(C)(=O)=O)c(-c3cccc(-c4nc5ccc(OC)nc5s4)c3)cc12` [Example 251]: the IC50 was 4 nM.

Regarding `CNC(=O)c1c(-c2ccc(F)cc2)oc2cc(N(C)S(C)(=O)=O)c(-c3cccc(-c4nc5ccc(=O)[nH]c5s4)c3)cc12` [Example 252], the IC50 was found to be 78.2 nM.

On to `CNC(=O)c1c(-c2ccc(F)cc2)oc2cc(N(C)S(C)(=O)=O)c(-c3ccc(F)c(-c4nc5ncccc5s4)c3)cc12` [Example 260], for which the IC50 came out at 3.7 nM.

Take `CNC(=O)c1c(-c2ccc(F)cc2)oc2cc(N(C)S(C)(=O)=O)c(-c3cccc(-c4nc5ncc(Cl)cc5s4)c3)cc12` [Example 261]: the IC50 stood at 2 nM.

For `CNC(=O)c1c(-c2ccc(F)cc2)oc2cc(N(C)S(C)(=O)=O)c(-c3cccc(-c4nc5cnccc5s4)c3)cc12` [Example 262], the IC50 was 5 nM.

For the compound `CNC(=O)c1c(-c2ccc(F)cc2)oc2cc(N(C)S(C)(=O)=O)c(-c3cccc(-c4nc5ccncc5s4)c3)cc12` [Example 264], the IC50 amounted to 2.9 nM.

For the compound `CNC(=O)c1c(-c2ccc(F)cc2)oc2cc(N(C)S(C)(=O)=O)c(-c3ccc(OC)c(-c4nc5cccnc5s4)c3)cc12` [Example 271], the IC50 is 1.5 nM.

Take `CNC(=O)c1c(-c2ccc(F)cc2)oc2cc(N(C)S(C)(=O)=O)c(-c3cccc(-c4nc5nccnc5s4)c3)cc12` [Example 272]: the IC50 stood at 3 nM.

In the case of `CNC(=O)c1c(-c2ccc(F)cc2)oc2cc(N(C)S(C)(=O)=O)c(-c3cccc(-c4nc5cncnc5s4)c3)cc12` [Example 273], the IC50 was 2.2 nM.

On to `CNC(=O)c1c(-c2ccc(F)cc2)oc2cc(N(C)S(C)(=O)=O)c(-c3cccc(-c4nc5c(F)cccc5s4)c3)cc12` [Example 278], for which the IC50 came to 3.2 nM.

In the case of `CNC(=O)c1c(-c2ccc(F)cc2)oc2cc(N(C)S(C)(=O)=O)c(-c3cccc(-c4nc5cccc(F)c5s4)c3)cc12` [Example 279], the IC50 is 3.2 nM.

As for `CNC(=O)c1c(-c2ccc(F)cc2)oc2cc(N(C)S(C)(=O)=O)c(-c3cccc(-c4nc5ccc(NS(C)(=O)=O)cc5o4)c3)cc12` [Example 281, 2-(4-fluorophenyl)-N-methyl-6-(N-methylmethylsulfonamido)-5-(3-(6-(methylsulfonamido)benzo[d]oxazol-2-yl)phenyl)benzofuran-3-carboxamide], the IC50 came to 3.3 nM.

Take `CNC(=O)c1c(-c2ccc(F)cc2)oc2cc(N(C)S(C)(=O)=O)c(-c3cccc(-c4nc5ccc(NC(C)=O)cc5o4)c3)cc12` [Example 282]: the IC50 is 2.3 nM.

Take `CNC(=O)c1c(-c2ccc(F)cc2)oc2cc(N(C)S(C)(=O)=O)c(-c3cccc(-c4nc5ccc(NC(=O)c6ccccc6)cc5o4)c3)cc12` [Example 283]: the IC50 turned out to be 17.2 nM.

For `CNC(=O)c1c(-c2ccc(F)cc2)oc2cc(N(C)S(C)(=O)=O)c(-c3cccc(-c4nc5ccc(NS(=O)(=O)c6ccccc6)cc5o4)c3)cc12` [Example 284], the IC50 came out at 5.3 nM.

For `CNC(=O)c1c(-c2ccc(F)cc2)oc2cc(N(C)S(C)(=O)=O)c(-c3cccc(-c4nc5ccc(NC(=O)[C@@H]6CCCN6C(=O)OC(C)(C)C)cc5o4)c3)cc12` [Example 285], the IC50 was determined as 10.2 nM.

Take `CNC(=O)c1c(-c2ccc(F)cc2)oc2cc(N(C)S(C)(=O)=O)c(-c3cccc(-c4nc5cc(NS(=O)(=O)c6ccccc6)ccc5o4)c3)cc12` [Example 286]: the IC50 was 5.8 nM.
